Data: ChEMBL document CHEMBL4184141, “Investigating the Antibacterial Activity of Biphenylthiazoles against Methicillin- and Vancomycin-Resistant Staphylococcus aureus (MRSA and VRSA)” (J Med Chem, 2017)
≈ marks a conversion by molar mass, not a printed value. Calls of active or inactive are those of the source. The calls are words filed in the database; no cut-off is given here.

Tests used:
Staphylococcus aureus [1] = assay: Antibacterial activity against methicillin-resistant Staphylococcus aureus 2658 RCMB up to 20 hrs by broth microdilution assay; assay type: functional
[2] = Aqueous solubility of the compound in PBS after 2 hrs by turbidimetric method; assay type: physicochemical
[3] = Intrinsic clearance in human liver microsomes in absence of NADPH by LC-MS/MS analysis; assay type: ADME, microsome; details: read-out: CLH
[4] = Apparent permeability of the compound across basolateral side to apical side in human Caco2 cells by LC-MS/MS analysis; assay type: ADME, cell-based; details: Caco-2
[5] = Half life in human liver microsomes in absence of NADPH by LC-MS/MS analysis; assay type: ADME, microsome
[6] = Efflux ratio of permeability from basolateral to apical side over apical to basolateral side of human Caco2 cells by LC-MS/MS analysis; assay type: ADME, cell-based; details: Caco-2
Staphylococcus aureus [7] = assay: Potentiation of vancomycin-induced antibacterial activity against vancomycin-resistant Staphylococcus aureus VRS10 assessed as reduction in vancomycin MIC after 20 hrs by checkerboard assay; assay type: functional
Staphylococcus aureus [8] = assay: Synergistic antibacterial activity against vancomycin-resistant Staphylococcus aureus VRS10 after 20 hrs in presence of vancomycin by checkerboard assay; assay type: functional; details: VRS10, 20 h
Staphylococcus aureus [9] = assay: Potentiation of vancomycin-induced antibacterial activity against vancomycin-resistant Staphylococcus aureus VRS10 assessed as vancomycin MIC at 0.5 times MIC after 20 to 22 hrs (reference value: […] ug/mL); assay type: functional
Staphylococcus aureus [10] = assay: Antibacterial activity against vancomycin-resistant Staphylococcus aureus VRS10 up to 20 hrs by broth microdilution assay; assay type: functional; details: VRS10, 20 h
Staphylococcus aureus [11] = assay: Potentiation of vancomycin-induced antibacterial activity against vancomycin-resistant Staphylococcus aureus VRS10 assessed as vancomycin MIC after 20 hrs by checkerboard assay; assay type: functional; details: VRS10, 20 h
HRT-18 cell line [12] = assay: Cytotoxicity against human HRT18 cells up to 128 microg/ml after 6 hrs by MTS assay; assay type: cell-based; details: hrt-18, 6 h
Staphylococcus aureus [13] = assay: Antibacterial activity against methicillin-resistant Staphylococcus aureus USA400 NRS123 up to 20 hrs by broth microdilution assay; assay type: functional; details: USA400 NRS123, 20 h
Staphylococcus aureus [14] = assay: Bactericidal activity against vancomycin-resistant Staphylococcus aureus VRS10 up to 18 hrs by broth microdilution assay; assay type: functional; details: VRS10, 18 h, read-out: MBC99.9
HRT-18 cell line [15] = assay: Cytotoxicity against human HRT18 cells at 64 microg/ml after 6 hrs by MTS assay; assay type: cell-based; details: hrt-18, 6 h
Staphylococcus aureus [16] = assay: Antibacterial activity against Staphylococcus aureus RN4220 up to 20 hrs by broth microdilution assay; assay type: functional; details: RN4220, 20 h
Staphylococcus aureus [17] = assay: Bactericidal activity against vancomycin-resistant Staphylococcus aureus VRS12 up to 18 hrs by broth microdilution assay; assay type: functional; details: VRS12, 18 h, read-out: MBC99.9
Staphylococcus aureus [18] = assay: Bactericidal activity against Staphylococcus aureus RN4220 up to 18 hrs by broth microdilution assay; assay type: functional; details: RN4220, 18 h, read-out: MBC99.9
Staphylococcus aureus [19] = assay: Antibacterial activity against methicillin-resistant Staphylococcus aureus USA300 at 4 times MIC after 12 hrs by time-kill assay; assay type: functional, organism-based
Staphylococcus aureus [20] = assay: Antibacterial activity against vancomycin-resistant Staphylococcus aureus VRS11a up to 20 hrs by broth microdilution assay; assay type: functional
Staphylococcus aureus [21] = assay: Antibacterial activity against methicillin-resistant Staphylococcus aureus NRS119 up to 20 hrs by broth microdilution assay; assay type: functional; details: NRS119, 20 h
Enterococcus faecium = assay: Antibacterial activity against vancomycin-resistant Enterococcus faecium ATCC 700221 up to 20 hrs by broth microdilution assay; assay type: functional; details: ATCC 700221, 20 h
Staphylococcus aureus [22] = assay: Antibacterial activity against vancomycin-resistant Staphylococcus aureus VRS12 up to 20 hrs by broth microdilution assay; assay type: functional; details: VRS12, 20 h
Pseudomonas aeruginosa = assay: Antibacterial activity against Pseudomonas aeruginosa ATCC 15442 up to 20 hrs by broth microdilution assay; assay type: functional; details: ATCC 15442, 20 h
Staphylococcus aureus [23] = assay: Bactericidal activity against methicillin-resistant Staphylococcus aureus USA400 NRS123 up to 18 hrs by broth microdilution assay; assay type: functional; details: USA400 NRS123, 18 h, read-out: MBC99.9
HRT-18 cell line [24] = assay: Cytotoxicity against human HRT18 cells up to 32 microg/ml after 6 hrs by MTS assay; assay type: cell-based; details: hrt-18, 6 h
Staphylococcus aureus [25] = assay: Bactericidal activity against methicillin-resistant Staphylococcus aureus NRS119 up to 18 hrs by broth microdilution assay; assay type: functional; details: NRS119, 18 h, read-out: MBC99.9
Staphylococcus aureus [26] = assay: Bactericidal activity against vancomycin-resistant Staphylococcus aureus VRS11a up to 18 hrs by broth microdilution assay; assay type: functional; details: read-out: MBC99.9

Structure (SMILES): CCN(CC)c1nccc(-c2sc(-c3ccc(-c4ccccc4)cc3)nc2C)n1
- MIC (Staphylococcus aureus [1]): > 25 µg/mL

Structure (SMILES): Cc1nc(-c2ccc(-c3ccccc3)cc2)sc1-c1ccnc(N2CCCCC2)n1
- MIC (Staphylococcus aureus [1]): > 25 µg/mL

Structure (SMILES): Cc1nc(-c2ccc(-c3ccccc3)cc2)sc1-c1ccnc(NC(=N)n2cccn2)n1
- MIC (Staphylococcus aureus [1]): > 25 µg/mL

Structure (SMILES): Cc1nc(-c2ccc(-c3ccccc3)cc2)sc1-c1ccnc(NC(=N)N2CCCCC2)n1
- MIC (Staphylococcus aureus [1]): > 25 µg/mL

Structure (SMILES): Cc1nc(-c2ccc(-c3ccccc3)cc2)sc1-c1ccnc(NC#N)n1
- MIC (Staphylococcus aureus [1]): > 25 µg/mL

Structure (SMILES): Cc1nc(-c2ccc(-c3ccccc3)cc2)sc1-c1ccnc(NC(=N)N)n1
- MIC (Staphylococcus aureus [1]): 1.56 µg/mL (≈ 4.04 µM)
- solubility kinetic at 2 h [2]: 2.2 µM (≈ 0.85 µg/mL)

Structure (SMILES): Cc1nc(-c2ccc(-c3ccccc3)cc2)sc1-c1ccnc(NC(=N)c2ccccn2)n1
- MIC (Staphylococcus aureus [1]): > 25 µg/mL

Structure (SMILES): CCCCc1ccc(-c2nc(C)c(/C(C)=N/NC(=N)N)s2)cc1
- microsomal CLint [3]: < 9.6 µL/min/mg
- Papp B→A [4]: 1.2 ×10⁻⁶ cm/s
- half-life [5]: > 4 h
- MIC (Staphylococcus aureus [1]): 4.7 to 4.8 µg/mL (≈ 14.3 to 14.6 µM)
- efflux ratio [6]: > 2

Structure (SMILES): Cc1nc(-c2ccc(-c3ccccc3)cc2)sc1-c1ccnc(N2CCN(C)CC2)n1
- fractional inhibitory concentration index (FICI) (Staphylococcus aureus [7]): 0.03 - 0.53
- MIC (Staphylococcus aureus [8]): 1 µg/mL
- MIC (Staphylococcus aureus [9]): 1 µg/mL
- MIC (Staphylococcus aureus [10]): 32 µg/mL (≈ 74.8 µM)
- MIC (Staphylococcus aureus [1]): 6.25 µg/mL (≈ 14.6 µM)
- MIC (Staphylococcus aureus [11]): 0.5 to 64 µg/mL
- Activity (HRT-18 cell line [12]): Non-Toxic

Structure (SMILES): Cc1nc(-c2ccc(-c3ccccc3)cc2)sc1-c1ccnc(NC2CCCCC2)n1
- MIC (Staphylococcus aureus [1]): > 25 µg/mL

Structure (SMILES): CCCCNc1nccc(-c2sc(-c3ccc(-c4ccccc4)cc3)nc2C)n1
- MIC (Staphylococcus aureus [1]): > 25 µg/mL

Structure (SMILES): CCNc1nccc(-c2sc(-c3ccc(-c4ccccc4)cc3)nc2C)n1
- MIC (Staphylococcus aureus [1]): 6.25 µg/mL (≈ 16.8 µM)

Structure (SMILES): Cc1nc(-c2ccc(-c3ccccc3)cc2)sc1-c1ccnc(NC(N)=S)n1
- MIC (Staphylococcus aureus [1]): > 25 µg/mL

Structure (SMILES): Cc1nc(-c2ccc(-c3ccccc3)cc2)sc1-c1ccnc(N)n1
- MIC (Staphylococcus aureus [1]): 6.25 µg/mL (≈ 18.1 µM)

Structure (SMILES): Cc1nc(-c2ccc(-c3ccccc3)cc2)sc1-c1ccnc(-c2ccncc2)n1
- MIC (Staphylococcus aureus [1]): > 25 µg/mL

Structure (SMILES): Cc1nc(-c2ccc(-c3ccccc3)cc2)sc1-c1ccnc(NC2CCCC2)n1
- MIC (Staphylococcus aureus [1]): > 25 µg/mL

Structure (SMILES): Cc1nc(-c2ccc(-c3ccccc3)cc2)sc1-c1ccnc(NC(=N)N2CCOCC2)n1
- MIC (Staphylococcus aureus [13]): 16 µg/mL (≈ 35 µM)
- MBC (Staphylococcus aureus [14]): 64 µg/mL (≈ 140 µM)
- Activity (HRT-18 cell line [15]): Toxic
- MIC (Staphylococcus aureus [16]): 8 µg/mL (≈ 17.5 µM)
- MIC (Staphylococcus aureus [10]): 32 µg/mL (≈ 70.1 µM)
- MBC (Staphylococcus aureus [17]): 64 µg/mL (≈ 140 µM)
- MBC (Staphylococcus aureus [18]): 32 µg/mL (≈ 70.1 µM)
- Activity (Staphylococcus aureus [19]): inactive
- MIC (Staphylococcus aureus [20]): 32 µg/mL (≈ 70.1 µM)
- MIC (Staphylococcus aureus [1]): 0.78 µg/mL (≈ 1.71 µM)
- MIC (Staphylococcus aureus [21]): 8 µg/mL (≈ 17.5 µM)
- MIC (Enterococcus faecium): 8 µg/mL (≈ 17.5 µM)
- MIC (Staphylococcus aureus [22]): 64 µg/mL (≈ 140 µM)
- MIC (Pseudomonas aeruginosa): > 64 µg/mL
- MBC (Staphylococcus aureus [23]): 16 µg/mL (≈ 35 µM)
- Activity (HRT-18 cell line [24]): Non-Toxic
- MBC (Staphylococcus aureus [25]): 16 µg/mL (≈ 35 µM)
- MBC (Staphylococcus aureus [26]): 64 µg/mL (≈ 140 µM)

Structure (SMILES): CNc1nccc(-c2sc(-c3ccc(-c4ccccc4)cc3)nc2C)n1
- MIC (Staphylococcus aureus [1]): 12.5 µg/mL (≈ 34.9 µM)

Structure (SMILES): CCCNc1nccc(-c2sc(-c3ccc(-c4ccccc4)cc3)nc2C)n1
- MIC (Staphylococcus aureus [1]): > 25 µg/mL

Structure (SMILES): Cc1nc(-c2ccc(-c3ccccc3)cc2)sc1-c1ccnc(N2CCC2)n1
- MIC (Staphylococcus aureus [1]): > 25 µg/mL
